Experimental findings from ChEMBL document CHEMBL5608163, “Structure modification of anoplin for fighting resistant bacteria” (Eur J Med Chem, 2024) are described below.

The subject of data set [1] is Bacillus subtilis. The experiment in a line: Antibacterial activity against Bacillus subtilis ATCC 23857 assessed as reduction in bacterial growth incubated for 18 hrs by CLSI-based Mueller-Hinton broth dilution method. In kind it is functional.
The subject of data set [2] is Staphylococcus aureus. The experiment in a line: Antimicrobial activity against Staphylococcus aureus ATCC 25923 assessed as reduction in microbial growth incubated for 18 hrs by CLSI-based Mueller-Hinton broth dilution method. In kind it is functional.
Data set [3] deals with Klebsiella pneumoniae. Briefly: Antibacterial activity against Klebsiella pneumoniae ATCC 700603 assessed as reduction in bacterial growth incubated for 18 hrs by CLSI-based Mueller-Hinton broth dilution method. In kind it is functional.
Data set [4] relates to Erythrocyte. Briefly: Hemolytic activity in mouse erythrocyte assessed as hemolysis incubated for 1 hr by microplate reader analysis. Format: toxicity, cell-based.
The subject of data set [5] is Staphylococcus epidermidis. The experiment in a line: Antibacterial activity against Staphylococcus epidermidis ATCC 12228 assessed as reduction in bacterial growth incubated for 18 hrs by CLSI-based Mueller-Hinton broth dilution method. Format: functional.
In data set [6] the test system is Escherichia coli. Briefly: Antibacterial activity against Escherichia coli ML-35 ATCC 43837 assessed as reduction in bacterial growth incubated for 18 hrs by CLSI-based Mueller-Hinton broth dilution method. Format: functional.
Data set [7] concerns Pseudomonas aeruginosa. The experiment in a line: Antibacterial activity against Pseudomonas aeruginosa ATCC 27853 assessed as reduction in bacterial growth incubated for 18 hrs by CLSI-based Mueller-Hinton broth dilution method. Format: functional.
The subject of data set [8] is Acinetobacter baumannii. The experiment in a line: Antibacterial activity against Acinetobacter baumannii ATCC 19606 assessed as reduction in bacterial growth incubated for 18 hrs by CLSI-based Mueller-Hinton broth dilution method. Format: functional.

≈ marks a conversion by molar mass, not a printed value.

Consider `CCCCCCCCCCC(=O)NCCCC[C@@H](NC(=O)[C@H](CC(C)C)NC(=O)[C@H](CC(C)C)NC(=O)CN)C(=O)N[C@@H](CCCNC(=N)N)C(=O)N[C@H](C(=O)N[C@H](CCCCN)C(=O)N[C@H](C(=O)N[C@@H](CC(C)C)C(=O)N[C@@H](CC(C)C)C(N)=O)[C@@H](C)O)[C@@H](C)CC`, for which the MIC in data set [1] was determined as 4 µM (≈ 5.29 µg/mL); in data set [2] it was 8 µM; in data set [3], 32 µM (≈ 42.3 µg/mL); in data set [5], 2 µM (≈ 2.64 µg/mL); in data set [6], 8 µM (≈ 10.6 µg/mL); in data set [7] it was 8 µM (≈ 10.6 µg/mL). The MIC in data set [8] amounted to 16 µM (≈ 21.1 µg/mL). For the same molecule, the HC10 in data set [4] was 256 µM.
For the molecule `CCCCC(=O)NCCCC[C@@H](NC(=O)[C@H](CC(C)C)NC(=O)[C@H](CC(C)C)NC(=O)CN)C(=O)N[C@@H](CCCNC(=N)N)C(=O)N[C@H](C(=O)N[C@H](CCCCN)C(=O)N[C@H](C(=O)N[C@@H](CC(C)C)C(=O)N[C@@H](CC(C)C)C(N)=O)[C@@H](C)O)[C@@H](C)CC`, the MIC in data set [1], in data set [2], in data set [3], in data set [5], in data set [6] and in data set [7] was greater than 128 µM throughout. Also, in data set [8], the MIC was greater than 128 µM. Also, the HC10 in data set [4] was greater than 256 µM.
Regarding `CCCCCCCCC(=O)NCCCC[C@@H](NC(=O)[C@H](CC(C)C)NC(=O)[C@H](CC(C)C)NC(=O)CN)C(=O)N[C@@H](CCCNC(=N)N)C(=O)N[C@H](C(=O)N[C@H](CCCCN)C(=O)N[C@H](C(=O)N[C@@H](CC(C)C)C(=O)N[C@@H](CC(C)C)C(N)=O)[C@@H](C)O)[C@@H](C)CC`, the MIC in data set [1] came to 4 µM (≈ 5.18 µg/mL); in data set [2] it was 16 µM; in data set [3], 128 µM (≈ 166 µg/mL); in data set [5], 8 µM (≈ 10.4 µg/mL); in data set [6] it was 32 µM (≈ 41.4 µg/mL); in data set [7], 32 µM (≈ 41.4 µg/mL). For the same molecule, the MIC in data set [8] was determined as 32 µM (≈ 41.4 µg/mL). The HC10 in data set [4] was greater than 256 µM.
As for `CCCCCCCCCCCCC(=O)NCCCC[C@@H](NC(=O)[C@H](CC(C)C)NC(=O)[C@H](CC(C)C)NC(=O)CN)C(=O)N[C@@H](CCCNC(=N)N)C(=O)N[C@H](C(=O)N[C@H](CCCCN)C(=O)N[C@H](C(=O)N[C@@H](CC(C)C)C(=O)N[C@@H](CC(C)C)C(N)=O)[C@@H](C)O)[C@@H](C)CC`, the MIC in data set [1] was 2 µM (≈ 2.7 µg/mL); in data set [2], 4 µM; in data set [3], 8 µM (≈ 10.8 µg/mL); in data set [5], 4 µM (≈ 5.4 µg/mL); in data set [6], 4 µM (≈ 5.4 µg/mL); in data set [7] it was 4 µM (≈ 5.4 µg/mL). Further, the MIC in data set [8] came to 4 µM (≈ 5.4 µg/mL). Further, the HC10 in data set [4] is 32 µM.
For `CCCCCCCCCCCCCCC(=O)NCCCC[C@@H](NC(=O)[C@H](CC(C)C)NC(=O)[C@H](CC(C)C)NC(=O)CN)C(=O)N[C@@H](CCCNC(=N)N)C(=O)N[C@H](C(=O)N[C@H](CCCCN)C(=O)N[C@H](C(=O)N[C@@H](CC(C)C)C(=O)N[C@@H](CC(C)C)C(N)=O)[C@@H](C)O)[C@@H](C)CC`, the MIC was found to be 4 µM (≈ 5.51 µg/mL) in data set [1]; 8 µM in data set [2]; 32 µM (≈ 44.1 µg/mL) in data set [3]; 4 µM (≈ 5.51 µg/mL) in data set [5]; 8 µM (≈ 11 µg/mL) in data set [6]; 16 µM (≈ 22 µg/mL) in data set [7]. Besides, the MIC in data set [8] was determined as 8 µM (≈ 11 µg/mL). Besides, the HC10 in data set [4] is 32 µM.
Take `CCCCCCC(=O)NCCCC[C@@H](NC(=O)[C@H](CC(C)C)NC(=O)[C@H](CC(C)C)NC(=O)CN)C(=O)N[C@@H](CCCNC(=N)N)C(=O)N[C@H](C(=O)N[C@H](CCCCN)C(=O)N[C@H](C(=O)N[C@@H](CC(C)C)C(=O)N[C@@H](CC(C)C)C(N)=O)[C@@H](C)O)[C@@H](C)CC`: the MIC in data set [1] was 32 µM (≈ 40.5 µg/mL); in data set [2] it was greater than 128 µM; in data set [3] it was greater than 128 µM; in data set [5] it was 128 µM (≈ 162 µg/mL); in data set [6], greater than 128 µM; in data set [7] it was 64 µM (≈ 81 µg/mL). Moreover, in data set [8], the MIC is greater than 128 µM. Further, the HC10 in data set [4] was greater than 256 µM.
